In PubChem BioAssay AID248 (DTP/NCI, 2004):
Values joined by “and” are separate entries in the source; they are usually repeats but may differ in a detail not shown here. Equal entries are not always repeated. Toxic doses and inconclusive results are not listed. No stated cut-off is given here; in the data, active means T/C of 150% or more; inactive means T/C below 125%.

System: L1210 leukemia ip in BDF1 mice, survival T/C
Assay: NCI In Vivo Anticancer Drug Screen. Data for tumor model L1210 Leukemia (intraperitoneal) in B6D2F1 (BDF1) mice
Settings: endpoint: mean survival time, higher = longer survival
In short: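 Antitumor effect is assessed in tumor-bearing animals. Survival in the compound arm is compared with a vehicle-dosed control arm and expressed as their quotient.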

[1] = dose: 100.0 mg/kg/injection, schedule: Q01DX001 (ip), vehicle: carboxymethylcellulose (CMC)
[2] = dose: 200.0 mg/kg/injection, schedule: Q01DX001 (ip), vehicle: carboxymethylcellulose (CMC)
[3] = dose: 400.0 mg/kg/injection, schedule: Q01DX001 (ip), vehicle: carboxymethylcellulose (CMC)
[4] = dose: 100.0 mg/kg/injection, schedule: Q04DX003 (ip), vehicle: saline with Tween-80
[5] = dose: 100.0 mg/kg/injection, schedule: Q04DX003 (ip), vehicle: Klucel (hydroxypropylcellulose) (HPC)
[6] = dose: 200.0 mg/kg/injection, schedule: Q04DX003 (ip), vehicle: Klucel (hydroxypropylcellulose) (HPC)
[7] = dose: 200.0 mg/kg/injection, schedule: Q04DX003 (ip), vehicle: saline with Tween-80
[8] = dose: 400.0 mg/kg/injection, schedule: Q04DX003 (ip), vehicle: saline with Tween-80

Measured: T/C

O=c1[nH]cnc2c1ncn2C1CCCC1
inactive: dose: 18.12 mg/kg/injection, schedule: Q01DX Z (ip), vehicle: carboxymethylcellulose (CMC) 98 % of control | dose: 36.25 mg/kg/injection, schedule: Q01DX Z (ip), vehicle: carboxymethylcellulose (CMC) 98 % of control | dose: 36.25 mg/kg/injection, schedule: Q01DX Z (oral), vehicle: carboxymethylcellulose (CMC) 110 % of control | dose: 72.5 mg/kg/injection, schedule: Q01DX Z (ip), vehicle: carboxymethylcellulose (CMC) 93 % of control | dose: 72.5 mg/kg/injection, schedule: Q01DX Z (oral), vehicle: carboxymethylcellulose (CMC) 98 % of control | dose: 145.0 mg/kg/injection, schedule: Q01DX Z (ip), vehicle: carboxymethylcellulose (CMC) 98 % of control | dose: 145.0 mg/kg/injection, schedule: Q01DX Z (oral), vehicle: carboxymethylcellulose (CMC) 102 % of control | dose: 290.0 mg/kg/injection, schedule: Q01DX Z (oral), vehicle: carboxymethylcellulose (CMC) 110 % of control

O=[N+]([O-])c1ccc(O)c(N=Cc2ccccc2O)c1
inactive: [1] 102 % of control | [2] 96 % of control | [3] 96 % of control

Clc1nn2nnnc2c2ccccc12
inactive: dose: 6.25 mg/kg/injection, schedule: Q04DX002 (ip), vehicle: Klucel (hydroxypropylcellulose) (HPC) 93 % of control | dose: 12.5 mg/kg/injection, schedule: Q04DX002 (ip), vehicle: Klucel (hydroxypropylcellulose) (HPC) 93 % of control | dose: 25.0 mg/kg/injection, schedule: Q04DX002 (ip), vehicle: Klucel (hydroxypropylcellulose) (HPC) 96 % of control | dose: 25.0 mg/kg/injection, schedule: Q04DX003 (ip), vehicle: saline with Tween-80 98 % of control | dose: 50.0 mg/kg/injection, schedule: Q04DX003 (ip), vehicle: saline with Tween-80 101 % of control | [4] 98 % of control

CC(=O)c1cccc(NC(=O)Nc2nccs2)c1
inactive: dose: 100.0 mg/kg/injection, schedule: Q01DX001 (ip), vehicle: Klucel (hydroxypropylcellulose) (HPC) 100 % of control | dose: 100.0 mg/kg/injection, schedule: Q01DX009 (ip), vehicle: Klucel (hydroxypropylcellulose) (HPC) 101 % of control and 92 % of control | dose: 100.0 mg/kg/injection, schedule: Q04DX002 (ip), vehicle: Klucel (hydroxypropylcellulose) (HPC) 101 % of control and 91 % of control | [5] 101 % of control | dose: 200.0 mg/kg/injection, schedule: Q01DX001 (ip), vehicle: Klucel (hydroxypropylcellulose) (HPC) 104 % of control | dose: 200.0 mg/kg/injection, schedule: Q01DX009 (ip), vehicle: Klucel (hydroxypropylcellulose) (HPC) 104 % of control | dose: 200.0 mg/kg/injection, schedule: Q04DX002 (ip), vehicle: Klucel (hydroxypropylcellulose) (HPC) 104 % of control and 109 % of control | [6] 103 % of control | dose: 400.0 mg/kg/injection, schedule: Q01DX001 (ip), vehicle: Klucel (hydroxypropylcellulose) (HPC) 96 % of control | dose: 400.0 mg/kg/injection, schedule: Q01DX009 (ip), vehicle: Klucel (hydroxypropylcellulose) (HPC) 109 % of control and 88 % of control | dose: 400.0 mg/kg/injection, schedule: Q04DX002 (ip), vehicle: Klucel (hydroxypropylcellulose) (HPC) 96 % of control | dose: 400.0 mg/kg/injection, schedule: Q04DX003 (ip), vehicle: Klucel (hydroxypropylcellulose) (HPC) 96 % of control

O/N=C1\CCCC\C1=N/O.O/N=C1\CCCC\C1=N/O.[Pd]
inactive: dose: 100.0 mg/kg/injection, schedule: Q01DX009 (ip), vehicle: other 94 % of control | dose: 100.0 mg/kg/injection, schedule: Q04DX003 (ip), vehicle: other 102 % of control | dose: 200.0 mg/kg/injection, schedule: Q01DX009 (ip), vehicle: other 107 % of control | dose: 200.0 mg/kg/injection, schedule: Q04DX003 (ip), vehicle: other 98 % of control | dose: 400.0 mg/kg/injection, schedule: Q01DX009 (ip), vehicle: other 91 % of control | dose: 400.0 mg/kg/injection, schedule: Q04DX003 (ip), vehicle: other 90 % of control

C=C(C)C1CCC2(C=O)CCC3(C)C(CCC4C5(C)CCC(OC6CCCCO6)C(C)(C)C5CCC43C)C12 (stereo not given)
inactive: dose: 25.0 mg/kg/injection, schedule: Q04DX002 (ip), vehicle: saline with Tween-80 90 % of control | dose: 100.0 mg/kg/injection, schedule: Q04DX002 (ip), vehicle: saline with Tween-80 90 % of control

C=C(C)C(=O)Nc1c(C)cccc1C
inactive: [5] 105 % of control | [6] 94 % of control

NNc1ccc(-c2ccc(NN)cc2)cc1
inactive: [7] 95 % of control | [8] 98 % of control

COC1=C(Nc2cccc(C)c2C)C(=O)C(OC)=C(Nc2cccc(C)c2C)C1=O
inactive: dose: 50.0 mg/kg/injection, schedule: Q01DX001 (ip), vehicle: saline 97 % of control | dose: 100.0 mg/kg/injection, schedule: Q01DX001 (ip), vehicle: saline 103 % of control | dose: 100.0 mg/kg/injection, schedule: Q01DX009 (ip), vehicle: saline 111 % of control | dose: 100.0 mg/kg/injection, schedule: Q04DX003 (ip), vehicle: saline 98 % of control | dose: 200.0 mg/kg/injection, schedule: Q01DX001 (ip), vehicle: saline 115 % of control | dose: 200.0 mg/kg/injection, schedule: Q01DX009 (ip), vehicle: saline 96 % of control | dose: 200.0 mg/kg/injection, schedule: Q04DX003 (ip), vehicle: saline 91 % of control | dose: 400.0 mg/kg/injection, schedule: Q01DX001 (ip), vehicle: saline 103 % of control | dose: 400.0 mg/kg/injection, schedule: Q01DX009 (ip), vehicle: saline 90 % of control | dose: 400.0 mg/kg/injection, schedule: Q04DX003 (ip), vehicle: saline 91 % of control

O=C(O)c1cc(Br)sc1Br
inactive: [1] 101 % of control | [2] 95 % of control | [3] 95 % of control

O=C1Nc2ccccc2/C1=N/N=C/c1cc(Cl)cc(Cl)c1O
inactive: dose: 100.0 mg/kg/injection, schedule: Q01DX009 (ip), vehicle: saline with Tween-80 90 % of control | [4] 90 % of control | dose: 200.0 mg/kg/injection, schedule: Q01DX009 (ip), vehicle: saline with Tween-80 92 % of control | [7] 90 % of control | dose: 400.0 mg/kg/injection, schedule: Q01DX009 (ip), vehicle: saline with Tween-80 91 % of control | [8] 91 % of control
